US9920032B2, “Heterocyclic compounds useful as pim kinase inhibitors” (Incyte Corporation, priority 2015, dated 2018)
pIC50: −log10 of the molar value.

Legend:
Format in all cases: biochemical
[1] = molecular target: Pim-1 (Homo sapiens (Human), UniProt P11309); assay: Pim-1 kinase assay; conditions: 1 mM ATP; read-out: PIM1 IC50
Outline: (§1)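 Enzyme at 2.5 pM (Pim-1) or 1.25 pM (Pim-3) reacted 1 h at 25° C with 1 mM ATP and 0.05 μM biotinylated BAD peptide, pH 7.5. Phospho-Ser112 BAD detected by antibody/Protein-A acceptor and streptavidin donor bead proximity signal after EDTA quench and 1 h dark incubation.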

[2] = molecular target: Pim-2 (Homo sapiens (Human), UniProt Q9P1W9); assay: Pim-2 kinase assay; conditions: 1 mM ATP; read-out: PIM2 IC50
Chain of Pim-2 (Q9P1W9 whole entry): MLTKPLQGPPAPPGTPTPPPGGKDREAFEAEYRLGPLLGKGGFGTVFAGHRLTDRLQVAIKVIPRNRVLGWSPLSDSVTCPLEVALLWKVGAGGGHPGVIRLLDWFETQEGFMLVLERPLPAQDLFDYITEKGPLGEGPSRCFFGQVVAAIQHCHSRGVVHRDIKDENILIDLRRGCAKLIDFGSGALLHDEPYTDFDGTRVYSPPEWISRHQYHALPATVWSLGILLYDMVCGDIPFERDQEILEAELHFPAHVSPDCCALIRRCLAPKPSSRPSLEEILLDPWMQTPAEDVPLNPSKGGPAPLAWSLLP
Outline: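 TR-FRET assay with 1 nM enzyme, 0.05 μM fluorescein-CREBtide and 1 mM ATP in Tris pH 7.5 buffer with MgCl2, DTT, BSA and Tween-20, run 2 h at 25° C. Stopped with EDTA and Tb-labelled anti-CREB pSer133 antibody, then read after 30 min at room temperature.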

[3] = molecular target: Pim-3 (Homo sapiens (Human), UniProt Q86V86); assay: Pim-3 kinase assay; conditions: 1 mM ATP; read-out: PIM3 IC50
Outline: as §1

Chain of Pim-1 (P11309 whole entry): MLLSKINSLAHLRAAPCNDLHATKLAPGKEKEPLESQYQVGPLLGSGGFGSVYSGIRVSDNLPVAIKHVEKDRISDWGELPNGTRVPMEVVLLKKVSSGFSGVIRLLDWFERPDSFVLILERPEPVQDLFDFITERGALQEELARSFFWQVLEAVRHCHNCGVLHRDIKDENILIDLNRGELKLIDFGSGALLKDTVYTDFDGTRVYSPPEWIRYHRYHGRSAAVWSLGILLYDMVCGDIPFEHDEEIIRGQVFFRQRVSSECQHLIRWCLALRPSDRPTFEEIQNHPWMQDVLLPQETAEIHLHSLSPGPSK

Compound `CC(C)N1CCN(c2cnc3c(C(=O)Nc4cnccc4[C@@H]4C[C@H](C)C[C@H](N)C4)ccc(F)c3c2)CC1=O` [Example 115, N-(4-((1R,3S,5S)-3-Amino-5-methylcyclohexyl)pyridin-3-yl)-5-fluoro-3-(4-isopropyl-3-oxopiperazin-1-yl)quinoline-8-carboxamide] has a pIC50 [1] of at least 8.00, a pIC50 [2] of at least 7.00 and a pIC50 [3] of at least 8.00.
For `CO[C@H]1C[C@@H](C)N(c2cnc3c(C(=O)Nc4cnccc4[C@@H]4C[C@H](C)C[C@H](N)C4)ccc(F)c3c2)C1` [Example 158, N-(4-((1R,3S,5S)-3-Amino-5-methylcyclohexyl)pyridin-3-yl)-5-fluoro-3-((2R,4S)-4-methoxy-2-methylpyrrolidin-1-yl)quinoline-8-carboxamide], the pIC50 [1] was at least 8.00, the pIC50 [2] was at least 7.00 and the pIC50 [3] was at least 8.00.
`CCc1cc2c(F)ccc(C(=O)Nc3cnccc3[C@@H]3C[C@H](C)C[C@H](N)C3)c2nn1` [Example 92, N-{4-[(1R,3S,5S)-3-Amino-5-methylcyclohexyl]pyridin-3-yl}-3-ethyl-5-fluorocinnoline-8-carboxamide] gave a pIC50 [1] of at least 8.00, a pIC50 [2] of 5.00 to 6.00 and a pIC50 [3] of 7.30 to 8.00.
In the case of `C[C@@H]1C[C@H](N)C[C@H](c2ccncc2NC(=O)c2ccc(F)c3cc(N4CC5CC(C4)O5)cnc23)C1` [Example 81, N-(4-((1R,3S,5S)-3-Amino-5-methylcyclohexyl)pyridin-3-yl)-3-(6-oxa-3-azabicyclo[3.1.1]heptan-3-yl)-5-fluoroquinoline-8-carboxamide], the pIC50 [1] was at least 8.00, the pIC50 [2] was at least 7.00 and the pIC50 [3] was at least 8.00.
Work on `COC1CCCN(c2cnc3c(C(=O)Nc4cnccc4[C@@H]4C[C@H](C)C[C@H](N)C4)ccc(F)c3c2)CC1` (stereo partly drawn) [Example 101, N-(4-((1R,3S,5S)-3-Amino-5-methylcyclohexyl)pyridin-3-yl)-5-fluoro-3-(4-methoxyazepan-1-yl)quinoline-8-carboxamide] yielded a pIC50 [1] of at least 8.00, a pIC50 [2] of at least 7.00 and a pIC50 [3] of at least 8.00.
`C[C@@H]1C[C@H](N)C[C@H](c2ccncc2NC(=O)c2ccc(F)c3cc(N4CC(=O)N(C)C[C@H]4C)cnc23)C1` [Example 99, N-(4-((1R,3S,5S)-3-Amino-5-methylcyclohexyl)pyridin-3-yl)-3-((R)-2,4-dimethyl-5-oxopiperazin-1-yl)-5-fluoroquinoline-8-carboxamide] gave a pIC50 [1] of at least 8.00, a pIC50 [2] of at least 7.00 and a pIC50 [3] of at least 8.00.
`C[C@@H]1C[C@H](N)C[C@H](c2ccncc2NC(=O)c2ccc(F)c3cc(N4CCC(C)(O)CC4)cnc23)C1` [Example 41, N-(4-((1R,3S,5S)-3-Amino-5-methylcyclohexyl)pyridin-3-yl)-5-fluoro-3-(4-hydroxy-4-methylpiperidin-1-yl)quinoline-8-carboxamide] showed a pIC50 [1] of 7.30 to 8.00, a pIC50 [2] of 6.00 to 7.00 and a pIC50 [3] of 7.30 to 8.00.
`C[C@@H]1C[C@H](N)C[C@H](c2ccncc2NC(=O)c2ccc(F)c3cc(N4CC[C@H](C#N)C4)cnc23)C1` [Example 7, N-{4-[(1R,3S,5S)-3-Amino-5-methylcyclohexyl]pyridin-3-yl}-3-[(3S)-3-cyanopyrrolidin-1-yl]-5-fluoroquinoline-8-carboxamide] was tested, and the pIC50 [1] was at least 8.00, the pIC50 [2] was at least 7.00 and the pIC50 [3] was at least 8.00.
`COc1ccc(N(C)c2cnc3c(C(=O)Nc4cnccc4[C@@H]4C[C@H](C)C[C@H](N)C4)ccc(F)c3c2)cc1` [Example 148, N-(4-((1R,3S,5S)-3-Amino-5-methylcyclohexyl)pyridin-3-yl)-5-fluoro-3-((4-methoxyphenyl)(methyl)amino)quinoline-8-carboxamide] was tested, and the pIC50 [1] was at least 8.00, the pIC50 [2] was at least 7.00 and the pIC50 [3] was at least 8.00.
In the case of `COC1(C)CN(c2cnc3c(C(=O)Nc4cnccc4[C@@H]4C[C@H](C)C[C@H](N)C4)ccc(F)c3c2)C1` [Example 118, N-(4-((1R,3S,5S)-3-Amino-5-methylcyclohexyl)pyridin-3-yl)-5-fluoro-3-(3-methoxy-3-methylazetidin-1-yl)quinoline-8-carboxamide], the pIC50 [1] was at least 8.00, the pIC50 [2] was at least 7.00 and the pIC50 [3] was at least 8.00.
`C[C@@H]1C[C@H](N)C[C@H](c2ccncc2NC(=O)c2ccc(F)c3cc(N4CCCCCC4)cnc23)C1` [Example 76, N-(4-((1R,3S,5S)-3-Amino-5-methylcyclohexyl)pyridin-3-yl)-3-(azepan-1-yl)-5-fluoroquinoline-8-carboxamide] showed a pIC50 [1] of at least 8.00, a pIC50 [2] of at least 7.00 and a pIC50 [3] of at least 8.00.
`C[C@@H]1C[C@H](N)C[C@H](c2ccncc2NC(=O)c2ccc(F)c3cc(N4CCC[C@@H]4C)cnc23)C1` [Example 39, N-(4-((1R,3S,5S)-3-Amino-5-methylcyclohexyl)pyridin-3-yl)-5-fluoro-3-((S)-2-methylpyrrolidin-1-yl)quinoline-8-carboxamide] gave a pIC50 [1] of at least 8.00, a pIC50 [2] of at least 7.00 and a pIC50 [3] of 7.30 to 8.00.
Compound `C[C@@H]1C[C@H](N)C[C@H](c2ccncc2NC(=O)c2ccc(F)c3cc(N4CC5(CCC5)C4)cnc23)C1` [Example 107, N-(4-((1R,3S,5S)-3-Amino-5-methylcyclohexyl)pyridin-3-yl)-5-fluoro-3-(2-azaspiro[3.3]heptan-2-yl)quinoline-8-carboxamide] has a pIC50 [1] of at least 8.00, a pIC50 [2] of at least 7.00 and a pIC50 [3] of at least 8.00.
In the case of `C[C@@H]1C[C@H](N)C[C@H](c2ccncc2NC(=O)c2ccc(F)c3cc(N4CCC[C@H]4C)cnc23)C1` [Example 34, N-(4-((1R,3S,5S)-3-Amino-5-methylcyclohexyl)pyridin-3-yl)-5-fluoro-3-((R)-2-methylpyrrolidin-1-yl)quinoline-8-carboxamide], the pIC50 [1] was at least 8.00, the pIC50 [2] was at least 7.00 and the pIC50 [3] was at least 8.00.
`CO[C@@H]1C[C@@H](C)N(c2cnc3c(C(=O)Nc4cnccc4[C@@H]4C[C@H](C)C[C@H](N)C4)ccc(F)c3c2)C1` [Example 156] showed a pIC50 [1] of at least 8.00, a pIC50 [2] of at least 7.00 and a pIC50 [3] of at least 8.00.
In the case of `C[C@@H]1C[C@H](N)C[C@H](c2ccncc2NC(=O)c2ccc(F)c3cc(N4CC5(CCOCC5)C4)cnc23)C1` [Example 121, N-(4-((1R,3S,5S)-3-Amino-5-methylcyclohexyl)pyridin-3-yl)-5-fluoro-3-(7-oxa-2-azaspiro[3.5]nonan-2-yl)quinoline-8-carboxamide], the pIC50 [1] was at least 8.00, the pIC50 [2] was at least 7.00 and the pIC50 [3] was at least 8.00.
`COC1CCN(c2cnc3c(C(=O)Nc4cnccc4[C@@H]4C[C@H](C)C[C@H](N)C4)ccc(F)c3c2)CC1` [Example 131, N-(4-((1R,3S,5S)-3-Amino-5-methylcyclohexyl)pyridin-3-yl)-5-fluoro-3-(4-methoxypiperidin-1-yl)quinoline-8-carboxamide] gave a pIC50 [1] of at least 8.00, a pIC50 [2] of 6.00 to 7.00 and a pIC50 [3] of at least 8.00.
`C[C@@H]1C[C@H](N)C[C@H](c2ccncc2NC(=O)c2ccc(F)c3cc(-c4ccc(F)c5cccnc45)cnc23)C1` [Example 60, N-(4-((1R,3S,5S)-3-Amino-5-methylcyclohexyl)pyridin-3-yl)-5,5′-difluoro-3,8′-biquinoline-8-carboxamide] showed a pIC50 [1] of at least 8.00, a pIC50 [2] of 5.00 to 6.00 and a pIC50 [3] of 7.30 to 8.00.
Work on `C[C@@H]1C[C@H](N)C[C@H](c2ccncc2NC(=O)c2ccc(F)c3cc(NCCF)cnc23)C1` [Example 26, N-{4-[(1R,3S,5S)-3-Amino-5-methylcyclohexyl]pyridin-3-yl}-5-fluoro-3-[(2-fluoroethyl)amino]quinoline-8-carboxamide] yielded a pIC50 [1] of at least 8.00, a pIC50 [2] of at least 7.00 and a pIC50 [3] of at least 8.00.
Work on `C[C@@H]1C[C@H](N)C[C@H](c2ccncc2NC(=O)c2ccc(F)c3cc(N4CC[C@H]4C)cnc23)C1` [Example 167, N-(4-((1R,3S,5S)-3-Amino-5-methylcyclohexyl)pyridin-3-yl)-5-fluoro-3-((R)-2-methylazetidin-1-yl)quinoline-8-carboxamide] yielded a pIC50 [1] of at least 8.00, a pIC50 [2] of at least 7.00 and a pIC50 [3] of at least 8.00.
For `CCCN(C)c1cnc2c(C(=O)Nc3cnccc3[C@@H]3C[C@H](C)C[C@H](N)C3)ccc(F)c2c1` [Example 55, N-(4-((1R,3S,5S)-3-Amino-5-methylcyclohexyl)pyridin-3-yl)-5-fluoro-3-(methyl(propyl)amino)quinoline-8-carboxamide], the pIC50 [1] was at least 8.00, the pIC50 [2] was at least 7.00 and the pIC50 [3] was at least 8.00.
`C[C@@H]1C[C@H](N)C[C@H](c2ccncc2NC(=O)c2ccc(F)c3cc(N(C)c4ccccc4F)cnc23)C1` [Example 97, N-(4-((1R,3S,5S)-3-Amino-5-methylcyclohexyl)pyridin-3-yl)-5-fluoro-3-((2-fluorophenyl)(methyl)amino)quinoline-8-carboxamide] was tested, and the pIC50 [1] was at least 8.00, the pIC50 [2] was at least 7.00 and the pIC50 [3] was at least 8.00.
`C[C@@H]1C[C@H](N)C[C@H](c2ccncc2NC(=O)c2ccc(F)c3cc(N(C)C4CCCC4C#N)cnc23)C1` (stereo partly drawn) [Example 140, N-(4-((1R,3S,5S)-3-Amino-5-methylcyclohexyl)pyridin-3-yl)-3-((2-cyanocyclopentyl)(methyl)amino)-5-fluoroquinoline-8-carboxamide] gave a pIC50 [1] of at least 8.00, a pIC50 [2] of at least 7.00 and a pIC50 [3] of at least 8.00.
In the case of `C[C@@H]1C[C@H](N)C[C@H](c2ccncc2NC(=O)c2ccc(F)c3cc(N4C[C@@H](O)C[C@@H]4C)cnc23)C1` [Example 165, N-(4-((1R,3S,5S)-3-Amino-5-methylcyclohexyl)pyridin-3-yl)-5-fluoro-3-((2S,4S)-4-hydroxy-2-methylpyrrolidin-1-yl)quinoline-8-carboxamide], the pIC50 [1] was at least 8.00, the pIC50 [2] was at least 7.00 and the pIC50 [3] was at least 8.00.
